Key:
Trypanosoma cruzi [1] = experiment: Antitrypanosomal activity against Trypanosoma cruzi arequipa strain trypomastigotes assessed as parasite growth inhibition incubated for 48 hrs by resazurin staining based analysis; format: functional, organism-based
Trypanosoma cruzi [2] = experiment: Antitrypanosomal activity against Trypanosoma cruzi arequipa strain amastigotes assessed as parasite growth inhibition incubated for 48 hrs by resazurin staining based analysis; format: functional, organism-based
Trypanosoma cruzi [3] = experiment: Antitrypanosomal activity against Trypanosoma cruzi arequipa strain epimastigotes assessed as parasite growth inhibition incubated for 48 hrs by resazurin staining based analysis; format: functional, organism-based
Trypanosoma cruzi [4] = experiment: Antitrypanosomal activity against bloodstream Trypanosoma cruzi Y strain trypomastigotes assessed as parasite growth inhibition incubated for 24 hrs by light microscopic analysis; format: functional, organism-based
Leishmania infantum [5] = experiment: Antileishmanial activity against Leishmania infantum amastigotes assessed as inhibition of parasite growth; format: functional, organism-based
Trypanosoma cruzi [6] = experiment: Antitrypanosomal activity against Trypanosoma cruzi epimastigote assessed as parasite growth inhibition; format: functional, organism-based
Leishmania amazonensis = experiment: Antileishmanial activity against Leishmania amazonensis promastigotes assessed as inhibition of parasite growth; format: functional, organism-based
Trypanosoma cruzi [7] = experiment: Antitrypanosomal activity against Trypanosoma cruzi amastigote assessed as parasite growth inhibition; format: functional, organism-based
Trypanosoma cruzi [8] = experiment: Antitrypanosomal activity against Trypanosoma cruzi epimastigote Dm28c strain assessed as parasite growth inhibition; format: functional, organism-based
[9] = Selectivity index, ratio of CC50 for cytotoxicity against mouse RAW264.7 cells to IC50 for antitrypanosomal activity against Trypanosoma cruzi epimastigote; format: toxicity, cell-based; settings: read-out: Ratio CC50/IC50
[10] = Selectivity index, ratio of CC50 for cytotoxicity against mouse RAW264.7 cells to IC50 for antitrypanosomal activity against Trypanosoma cruzi amastigote; format: toxicity, cell-based; settings: read-out: Ratio CC50/IC50
[11] = Selectivity index, ratio of CC50 for mouse J774.A1 cells to ratio of IC50 for antitrypanosomal activity against bloodstream Trypanosoma cruzi INC-5 strain trypomastigotes; format: toxicity; settings: read-out: Ratio CC50/IC50
[12] = Selectivity index, ratio of CC50 for mouse J774.A1 cells to ratio of IC50 for antitrypanosomal activity against bloodstream Trypanosoma cruzi NINOA strain trypomastigotes; format: toxicity; settings: read-out: Ratio CC50/IC50
Trypanosoma cruzi [13] = experiment: Antitrypanosomal activity against bloodstream Trypanosoma cruzi NINOA strain trypomastigotes assessed as parasite growth inhibition incubated for 24 hrs by microscopic analysis; format: functional
Trypanosoma cruzi [14] = experiment: Antitrypanosomal activity against bloodstream Trypanosoma cruzi INC-5 strain trypomastigotes assessed as parasite growth inhibition incubated for 24 hrs by microscopic analysis; format: functional
Leishmania major = experiment: Antileishmanial activity against Leishmania major promastigote assessed as inhibition of parasite growth; format: functional, organism-based
[15] = Selectivity index, ratio of CC50 for human WI26VA4 cells to ratio of IC50 for antileishmanial activity against Leishmania braziliensis MHOM/BR/75/M2903 promastigote; format: toxicity; settings: read-out: Ratio CC50/IC50
Leishmania infantum [16] = experiment: Antileishmanial activity against Leishmania infantum MHOM/BR/74/PP75 strain promastigotes assessed as reduction in cell viability incubated for 48 hrs by MTT assay; format: functional, organism-based; settings: MHOM/BR/74/PP75, 48 h
[17] = Selectivity index, ratio of CC50 for human WI26VA4 cells to ratio of IC50 for antileishmanial activity against Leishmania infantum MHOM/BR/74/PP75 promastigote; format: toxicity; settings: read-out: Ratio CC50/IC50
Leishmania braziliensis = experiment: Antileishmanial activity against Leishmania braziliensis MHOM/BR/75/M2903 strain promastigotes assessed as reduction in cell viability incubated for 48 hrs by MTT assay; format: functional, organism-based; settings: MHOM/BR/75/M2903, 48 h

## O=C(Nc1ccc([Se][Se]c2ccc(NC(=O)c3ccc([N+](=O)[O-])cc3)cc2)cc1)c1ccc([N+](=O)[O-])cc1
Trypanosoma cruzi [1]
  IC50: 35.8 µM
Trypanosoma cruzi [2]
  IC50: 49.3 µM

## N#Cc1ccc(C[Se][Se]Cc2ccc(C#N)cc2)cc1
Trypanosoma cruzi [3]
  IC50: 1.3 µM
Trypanosoma cruzi [1]
  IC50: 0.9 µM
Trypanosoma cruzi [2]
  IC50: 0.5 µM

## CC1(C)OC2=C(CC1[Se]c1cccs1)C(=O)C(=O)c1ccccc12 (stereo not given)
Trypanosoma cruzi [4]
  IC50: 63.3 µM

## c1ccc2c(c1)nnn2C[Se][Se]Cn1nnc2ccccc21
Leishmania infantum [5]
  IC50: 0.45 µM

## O=P(Nc1ccc([Se][Se]c2ccc(NP(=O)(Oc3ccccc3)Oc3ccccc3)cc2)cc1)(Oc1ccccc1)Oc1ccccc1
Leishmania infantum [5]
  IC50: 14.3 µM

## NC(=S)N/C=N/c1c(C(F)(F)F)nn(-c2ccccc2)c1-c1ccc(Br)cc1
Trypanosoma cruzi [6]
  IC50: 30.3 µM

## CC1=CC[C@@H](C(C)(C)NC(=S)NN)CC1
Leishmania amazonensis
  IC50: 3 µM

## NS(=O)(=O)c1nnc(NC(=O)Cc2ccc(Cl)cc2)s1
Trypanosoma cruzi [7]
  IC50: 3.47 µM
Trypanosoma cruzi [8]
  IC50: 6.24 µM
[9]
  selectivity ratio: 1
[10]
  selectivity ratio: 1

## COc1ccc(CSc2nc3ccccc3s2)cc1
[11]
  selectivity ratio: > 3.26
[12]
  selectivity ratio: > 2.92
Trypanosoma cruzi [13]
  LC50: 308 µM
Trypanosoma cruzi [14]
  LC50: 276 µM

## O=C(Nc1ccc([Se][Se]c2ccc(NC(=O)c3ccco3)cc2)cc1)c1ccco1
Trypanosoma cruzi [1]
  IC50: 1.8 µM
Trypanosoma cruzi [2]
  IC50: 3.2 µM

## O=C1c2cccc3cccc(c23)C(=O)C1CCCCCCN=C=[Se]
Leishmania amazonensis
  IC50: 0.2 µM
Leishmania major
  IC50: 0.03 µM

## O=C(Nc1ccc([Se][Se]c2ccc(NC(=O)c3cccs3)cc2)cc1)c1cccs1
Trypanosoma cruzi [1]
  IC50: 12.7 µM
Trypanosoma cruzi [2]
  IC50: 15.4 µM

## NS(=O)(=O)c1ccc(NC(=[Se])NC(=O)c2ccc3c(c2)OCO3)cc1
Leishmania infantum [5]
  IC50: 5.28 µM

## NS(=O)(=O)c1ccc(CCNC(=O)Cc2ccc(Br)cc2)cc1
Trypanosoma cruzi [7]
  IC50: 3.51 µM
Trypanosoma cruzi [8]
  IC50: 7.36 µM
[9]
  selectivity ratio: 0.44
[10]
  selectivity ratio: 0.44

## O=C1C(=O)c2ccccc2C2=C1CC(C[Se]c1ccc(Cl)cc1)O2 (stereo not given)
Trypanosoma cruzi [4]
  IC50: 58.3 µM

## COc1ccc([Te]Cc2ccc(S(N)(=O)=O)cc2)cc1
Leishmania infantum [5]
  IC50: 6.14 µM

## Cc1ccc([Te]Cc2ncc(-c3ccc(S(N)(=O)=O)cc3)[se]2)cc1
Leishmania infantum [5]
  IC50: 0.34 µM

## Oc1ccc(-c2nnc(-c3ccc4ncccc4c3)s2)c(O)c1
Leishmania major
  IC50: 0.7 µM

## FC(F)(F)c1ccc(C[Se][Se]Cc2ccc(C(F)(F)F)cc2)cc1
Trypanosoma cruzi [3]
  IC50: 1.9 µM
Trypanosoma cruzi [1]
  IC50: 1.5 µM
Trypanosoma cruzi [2]
  IC50: 0.8 µM

## NS(=O)(=O)c1ccc(NC(=[Se])NC(=O)c2ccccc2)cc1
Leishmania infantum [5]
  IC50: 5.23 µM

## CC1(C)OC2=C(CC1[Se]c1cccc3ccccc13)C(=O)C(=O)c1ccccc12 (stereo not given)
Trypanosoma cruzi [4]
  IC50: 57 µM

## CSc1ccc(C[Se][Se]Cc2ccc(SC)cc2)cc1
Trypanosoma cruzi [3]
  IC50: 1.8 µM
Trypanosoma cruzi [1]
  IC50: 1.7 µM
Trypanosoma cruzi [2]
  IC50: 1.2 µM

## NC(=S)N/C=N/c1c(C(F)(F)F)nn(-c2ccccc2)c1-c1ccccc1
Trypanosoma cruzi [6]
  IC50: 83.1 µM

## NS(=O)(=O)c1nnc(NC(=O)Cc2ccccc2Br)s1
Trypanosoma cruzi [7]
  IC50: 2.15 µM
Trypanosoma cruzi [8]
  IC50: 3.98 µM
[9]
  selectivity ratio: 2
[10]
  selectivity ratio: 5

## [Se]=C=NCCCCc1ccccc1 [PHENYLBUTYL ISOSELENOCYANATE]
Leishmania amazonensis
  IC50: 4.5 µM
Leishmania major
  IC50: 7.2 µM

## c1ccc(CSc2nc3ccccc3s2)cc1
[11]
  selectivity ratio: > 2.68
[12]
  selectivity ratio: > 7.29
Trypanosoma cruzi [13]
  LC50: 123 µM
Trypanosoma cruzi [14]
  LC50: 336 µM

## NC(=S)N/C=N/c1c(C(F)(F)F)nn(-c2ccccc2)c1-c1ccc(Cl)cc1
Trypanosoma cruzi [6]
  IC50: 49.2 µM

## O=C1NC(=O)/C(=C/c2ccccc2Cl)S1
[15]
  selectivity ratio: 0.86
Leishmania infantum [16]
  IC50: 68.8 µM
[17]
  selectivity ratio: 0.89
Leishmania braziliensis
  IC50: 71 µM

## CC1=CC[C@@H](C(C)(C)NC(=S)N/N=C/c2ccc([N+](=O)[O-])cc2)CC1
Leishmania amazonensis
  IC50: 11.2 µM

## Fc1ccc(CSc2nc3ccccc3s2)cc1
Trypanosoma cruzi [13]
  LC50: > 350 µM
Trypanosoma cruzi [14]
  LC50: > 350 µM
